The subject of assay [1] is HLA-A2/K^b transgenic mice. In words: s.c. immunization without adjuvant, CTL assay (FIG. 3B). The assay is classed as in vivo, mouse. The settings on record: 100 μg s.c. plus T-helper peptide, no adjuvant, boosts days 14 and 28. From the text:
Mice were similarly boosted on days 14 and 28. […] Average responses from each group are shown.

The subject of assay [2] is HLA-A2/K^b transgenic mice. The settings on record: 100 μg s.c. plus T-helper peptide, no adjuvant, boosts days 14 and 28.
From the text: Mice were similarly boosted on days 14 and 28. On day 42, splenocytes (2 mice per group) were individually restimulated in vitro for 6 days with the appropriate wild type peptide, and then tested for either IFN-γ secretion by ELISPOT (FIG. 3A) or CTL assay (FIG. 3B) using peptide-pulsed C1R-A2 cells. On day 57, the remaining mice in each group were similarly tested. Average responses from each group are shown.
Assay [3] has as its system HLA-A2/Kb transgenic mice. In words: s.c. peptide immunization, gp100-154 CTL chromium release (FIG. 5). The settings on record: 50 ug s.c., boosts days 21 and 42, day 63.
Method: CTL responses in HLA-A2/Kb transgenic mice following subcutaneous (s.c.) injection of peptide. Mice were immunized s.c. with 50 ug of the indicated peptides and boosted on days 21 and 42 following the first injection. Splenocytes from immunized animals were harvested on day 63 post immunization, re-stimulated with the native gp100-154 peptide for 5 days, and tested for CTL activity in a standard chromium release assay using target cells pulsed with gp100-154 peptide.
Furthermore, CTL responses were assessed in HLA-A2/K^b transgenic mice (Sherman strain) following s.c. immunization with gp100-154 peptide alone, conjugated to hPER1 or AntpHD with or without linker FVYVW. Mice were boosted on days 21 and 42 and splenocytes from vaccinated animals were harvested on day 63 and tested for CTL activity after 5 days of restimulation in vitro.
The subject of another assay is P815-A2/K^b cells. In words: Sensitization of P815-A2/K^b target cells for CTL lysis, chromium release assay. It is filed as cell-based, mouse. The method, then:
FIG. 1. In vitro sensitization of target cells for peptide-specific lysis by hPER1 conjugates.
Further, ^51Cr-labeled P815-A2/K^b cells were pulsed with 10^−6 g/ml 280-9V peptide ([…]) or hPER1-280-9V ([…]) or were left untreated (no peptide) and incubated for 1 hour at 37° C. The cells were then washed and tested for CTL recognition in a standard 4-hour chromium release assay, using T cells obtained from the spleens of HLA-A2/K^b transgenic mice immunized with 280-9V peptide in incomplete Freund's adjuvant. Where indicated, 5 μg/ml brefeldin A (BFA) was included in the assay, to block the surface expression of nascent class I MHC molecules. […] The level of CTL killing is reduced if the hPER1-280-9V-pulsed target cells are treated with brefeldin A, which blocks the intracellular transport of newly synthesized MHC molecules.

Assay [4] concerns PBMCs from an HLA-A2-positive patient. In words: In vitro induction of human CTL in PBMC culture, chromium release assay. The assay is classed as cell-based. To be noted: repeated in vitro stimulation, day 42, C1R-A2 target cells pulsed with 280-9V. The method, then: FIG. 2. In vitro induction of human T cell responses using a hPER1 conjugate peptide.
Peripheral blood mononuclear cells (PBMCs) from an HLA-A2-positive patient were cultured in the presence of IL-2 (50 U/ml), IL-7 (10 ng/ml), LPS (10 μg/ml), CD40-ligand expressing 3T3 cells, and peptide (10 μg/ml of 280-9V or hPER1-280-9V). On days 11, 22, and 32 the cells were restimulated by culturing in the presence of IL-2 (50 U/ml) and IL-7 (10 ng/ml) and autologous, CD40-ligand activated PBMCs pulsed with peptide (100 μg/ml of 280-9V or hPER1-280-9V) for 3 hours.

In the case of GRRHHRRSKAKRSRKTWGQYWQV, the “peptide-specific CTL responses” value in assay [1] is on record as “can be induced”. Further, the “154-specific IFN-γ responses (ELISPOT)” value in assay [2] was “can be induced”. Further, the “CTL responses against gp100-154” value in assay [3] is reported as “a weak response was observed”.
As for RRHHRRSKAKRSRYLEPGPVTV [hPER1-280-9V], the “level of CTL killing of peptide-pulsed target cells treated with brefeldin A” value in the assay on P815-A2/K^b cells (5 μg/ml brefeldin A in the assay) was “reduced”. The “sensitization of P815-A2/K^b target cells for CTL recognition” value in the assay on P815-A2/K^b cells (10^−6 g/ml peptide, 1 hour at 37° C., 4-hour chromium release) is given as “can be sensitized”. In addition, the “induction of 280-9V-specific human CTLs” value in assay [4] was “can be induced”. Further, in assay [1], the “peptide-specific CTL responses” value was “can be induced”.

The values above are taken from patent US20060002946A1, “Targeted immunogens” (Aventis Pasteur, Inc., priority 2003, published 2006).
